Results: patent publication US7531344B2, “Induction and stabilization of enzymatic activity in microorganisms” (Georgia State University Research Foundation, Inc., priority 2006, dated 2009)

What was measured:
asparaginase I [1] = test: Effect of media composition and inducer on asparaginase I, Example 10; format: cell-based, Rhodococcus sp. DAP 96253; details: for effect of medium additive on asparaginase I activity: maltose added to YEMEA, Cobalt 5-50 ppm with glucose or maltose; for Asparaginase I levels / ability to induce asparaginase I activity: inducer 1000 ppm
Description: (§1) In certain embodiments, activity can be referred to in terms of “units” per mass of enzyme or cells (typically based on the dry weight of the cells, e.g., units/mg cdw). A “unit” generally refers to the ability to convert a specific content of a compound to a different compound under a defined set of conditions as a function of time. In specific embodiments, 1 “unit” of nitrile hydratase activity can relate to the ability to convert 1 μmol of acrylonitrile to its corresponding amide per minute, per milligram of cells (dry weight) at a of pH 7.0 and a temperature of 30° C. Similarly, 1 unit of amidase activity can relate to the ability to convert 1 μmol of acrylamide to its corresponding acid per minute, per milligram of cells (dry weight) at a pH of 7.0 and a temperature of 30° C. Further, 1 unit of asparaginase I activity can relate to the ability to convert 1 μmol of asparagine to its corresponding acid per minute, per milligram of cells (dry weight) at a pH of 7.0 and a temperature of 30° C.
Testing was performed to evaluate the effect on asparaginase I activity based upon the inducer used. In particular, testing was performed using asparagine, glutamine, succinonitrile, and isovaleronitrile as inducers (all added at 1000 ppm each).

nitrile hydratase [2] = test: Nitrile hydratase induction by inducers, Example 1; format: cell-based, Rhodococcus sp., strain DAP 96253; details: for nitrile hydratase induction compared with acrylonitrile: Table 1 comparison
Description: as §1
(§2) The induction of nitrile hydratase activity and amidase activity in Rhodococcus sp., strain DAP 96253, was evaluated using multiple types of inducers (1000 ppm). Three different samples were cultured in YEMEA medium containing 10 ppm cobalt and 7.5 g/L urea and supplemented with acrylonitrile, asparagine, or glutamine. The specific nitrile hydratase activity and the specific amidase activity in each sample was evaluated, and the results are provided below in Table 1, with activities provided in units/mg cdw (cell dry weight). One unit of nitrile hydratase activity relates to the ability to convert 1 μmol of acrylonitrile to its corresponding amide per minute, per milligram of cells (dry weight) at a of pH 7.0 and a temperature of 30° C. One unit of amidase activity relates to the ability to convert 1 μmol of acrylamide to its corresponding acid per minute, per milligram of cells (dry weight) pH of 7.0 and a temperature of 30° C.

amidase [3] = test: Amidase induction by inducers, Example 1; format: cell-based, Rhodococcus sp., strain DAP 96253; details: for amidase activity greater than the amidase activity resulting from the use of acrylonitrile: relative to acrylonitrile induction, Table 1
Description: as §1, §2

nitrile hydratase [4] = test: Nitrile hydratase production, Example 7; format: cell-based; details: Pseudomonas chloroaphis ATCC 43051; 30 °C; supplement 3.8 mM
Description: (§3) In certain embodiments, activity can be referred to in terms of “units” per mass of enzyme or cells (typically based on the dry weight of the cells, e.g., units/mg cdw). A “unit” generally refers to the ability to convert a specific content of a compound to a different compound under a defined set of conditions as a function of time. […] The induction of nitrile hydratase production and amidase production in various nitrile hydratase producing microorganisms was evaluated. […] The asparagine and glutamine were added 3.8 mM. As a comparative, enzyme production with no supplementation was also tested. Growth temperature was in the range of 26° C. to 30° C.

amidase [5] = test: Amidase production, Example 7; format: cell-based; details: Pseudomonas chloroaphis ATCC 43051; 30 °C; supplement 3.8 mM
Description: as §3

asparaginase I [6] = test: Asparaginase I production, Example 8; format: cell-based; details: asparagine and glutamine 3.8 mM
Description: as §1
The induction of asparaginase I production in various nitrile hydratase producing microorganisms was evaluated. All strains were grown on YEMEA medium containing 7.5 g/L of urea and 10 ppm cobalt (provided as cobalt chloride) supplemented with asparagine (ASN), glutamine (GLN), or both asparagine and glutamine. The asparagine and glutamine were added 3.8 mM. As a comparative, enzyme production was also evaluated with supplementation was with acrylonitrile (AN), acrylamide (AMD) or acrylonitrile and acrylamide. Growth temperature was in the range of 26° C. to 30° C.

[7] = tested on: acrylonitrile specific nitrile hydratase; test: 20 liter fermentation with asparagine feed: nitrile hydratase; format: cell-based, Rhodococcus sp. DAP 96253; details: asparagine 0.15M at 1000 μl/min from t=10 h
Description: (§4) Rhodococcus sp. DAP 96253 were grown using biphasic medium as the source of inoculum for a 20 liter fermentation. The supplemental addition of medium/carbohydrate (either YEMEA, dextrose or maltose) was made to the modified R2A medium, containing cottonseed hydrolysate substituted for the Proteos Peptone 3 (PP3). Asparagine (0.15M solution) was added at a continuous rate of 1000 μl/min beginning at t=10 h. At the end of the fermentation run, 159 units per milligram cell dry weight of acrylonitrile specific nitrile hydratase, 22 units of amidase per milligram cell dry weight, and 16 g/l cell packed wet weight were produced.

amidase [8] = test: 20 liter fermentation with asparagine feed: amidase; format: cell-based, Rhodococcus sp. DAP 96253; details: asparagine 0.15M at 1000 μl/min from t=10 h
Description: as §4

asparaginase I [9] = test: 20 liter fermentation with asparagine feed: asparaginase I; format: cell-based, Rhodococcus sp. DAP 96253; details: asparagine 0.15M at 1000 μl/min from t=10 h
Description: as §4

[10] = YEMEA - Glucose, Without Cobalt
[11] = YEMEA - Maltose, Without Cobalt
[12] = Rhodococcus sp. DAP 96253, YEMEA, 10 ppm cobalt, 7.5 g/L urea, inducer 1000 ppm

SMILES: [Co] [Cobalt]
- effect of medium additive on asparaginase I activity (asparaginase I [1]): resulted in improvements

SMILES: N#CCCC#N [Succinonitrile, succinonitrile, reference compound]
- Asparaginase I levels (asparaginase I [1]; YEMEA - Glucose, With Cobalt): 8.5 units/mg cell dry weight
- Asparaginase I levels (asparaginase I [1]; [10]): 6.5 units/mg cell dry weight
- Asparaginase I levels (asparaginase I [1]; YEMEA - Maltose, With Cobalt): 10.0 units/mg cell dry weight
- Asparaginase I levels (asparaginase I [1]; [11]): 11.0 units/mg cell dry weight
- ability to induce asparaginase I activity (asparaginase I [1]): showed an ability to induce asparaginase I activity

SMILES: NC(=O)CC[C@H](N)C(=O)O [Glutamine, glutamine]
- nitrile hydratase induction compared with acrylonitrile (nitrile hydratase [2]): exceeds the ability of acrylonitrile to induce such activity
- amidase activity greater than the amidase activity resulting from the use of acrylonitrile (amidase [3]): approximately 37%
- Nitrile Hydratase Level Based on Growth Medium Supplementation (nitrile hydratase [4]): No
- Amidase Level Based on Growth Medium Supplementation (amidase [5]): No
- Asparaginase I Level Based on Growth Medium Supplementation (asparaginase I [6]; Pseudomonas chloroaphis ATCC 43051, 30 °C): No
- Asparaginase I levels (asparaginase I [1]; YEMEA - Glucose, With Cobalt): 1.9 units/mg cell dry weight
- Asparaginase I levels (asparaginase I [1]; [10]): 1.5 units/mg cell dry weight
- Asparaginase I levels (asparaginase I [1]; YEMEA - Maltose, With Cobalt): 8.1 units/mg cell dry weight
- Asparaginase I levels (asparaginase I [1]; [11]): 9.3 units/mg cell dry weight
- ability to induce asparaginase I activity (asparaginase I [1]): showed an ability to induce asparaginase I activity

SMILES: NC(=O)C[C@H](N)C(=O)O [Asparagine, asparagine]
- nitrile hydratase induction compared with acrylonitrile (nitrile hydratase [2]): exceeds the ability of acrylonitrile to induce such activity
- amidase activity greater than the amidase activity resulting from the use of acrylonitrile (amidase [3]): approximately 74%
- acrylonitrile specific nitrile hydratase produced at end of fermentation [7]: 159 units per milligram cell dry weight
- amidase produced at end of fermentation (amidase [8]): 22 units per milligram cell dry weight
- asparaginase I produced at end of fermentation (asparaginase I [9]): 16 units per milligram cell dry weight
- Asparaginase I levels (asparaginase I [1]; YEMEA - Glucose, With Cobalt): 6.5 units/mg cell dry weight
- Asparaginase I levels (asparaginase I [1]; [10]): 5.3 units/mg cell dry weight
- Asparaginase I levels (asparaginase I [1]; [11]): 8.7 units/mg cell dry weight

SMILES: C=CC#N [Acrylonitrile, acrylonitrile]
- Nitrile Hydratase Activity (nitrile hydratase [2]; [12]): 162.23 Units/mg cdw
- Amidase Activity (amidase [3]; [12]): 7.59 Units/mg cdw
- Asparaginase I Level Based on Growth Medium Supplementation (asparaginase I [6]; Brevibacterium ketoglutaricum ATCC 21533, 30 °C): 14.6 Units/mg cdw
- Asparaginase I Level Based on Growth Medium Supplementation (asparaginase I [6]; Pseudomonas chloroaphis ATCC 13985, 26 °C): 2 Units/mg cdw
- Asparaginase I Level Based on Growth Medium Supplementation (asparaginase I [6]; Rhodococcus rhodochrous DAP 96622 (ATCC 55898), 26 °C): 8.2 Units/mg cdw
- Asparaginase I Level Based on Growth Medium Supplementation (asparaginase I [6]; Rhodococcus sp. DAP 96253 (ATCC 55899), 30 °C): 7.8 Units/mg cdw

SMILES: CC(C)CC#N [Isovaleronitrile, isovaleronitrile, reference compound]
- Asparaginase I levels (asparaginase I [1]; YEMEA - Glucose, With Cobalt): 2.9 units/mg cell dry weight
- Asparaginase I levels (asparaginase I [1]; [10]): 3.5 units/mg cell dry weight
- Asparaginase I levels (asparaginase I [1]; YEMEA - Maltose, With Cobalt): 7.0 units/mg cell dry weight
- Asparaginase I levels (asparaginase I [1]; [11]): 6.8 units/mg cell dry weight

SMILES: OC[C@H]1O[C@H](O[C@H]2[C@H](O)[C@@H](O)C(O)O[C@@H]2CO)[C@H](O)[C@@H](O)[C@@H]1O (mixture of isomers) [maltose]
- effect of medium additive on asparaginase I activity (asparaginase I [1]): Higher asparaginase I activity
